Nine molecules from patent publication US8680139B2 (Progenra, priority 2009, dated 2014) can be followed below.

A value given as a limit tells only on which side of the number the result lay.

For one data set, the target named is T1, USP7 (Homo sapiens, UniProt Q93009).
T1 construct: full length human USP7 protein; made in house
In words: USP7, Ub-PLA2 assay. Type of data set: biochemical. Conditions: Ub-PLA2 / NBD C6-HPC fluorescence, 30 minute preincubation; read-out: EC50 for inhibition of USP7. The gist of the method: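 Activity read as fluorescence in a Ub-PLA2 format, with percent inhibition calculated within each plate against DMSO (uninhibited) and NEM (background) wells. Vehicle was 100% DMSO.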

In a further data set the test system is A549/ATCC. In words: NCI-60 Human Tumor Cell Line Growth Inhibition Screen. Type of data set: cell-based. Conditions: Non-Small Cell Lung Cancer, 48 hours, SRB. On the procedure: (§1) Various human tumor cell lines representing the NCI-60 cancer screening panel were grown in RPMI 1640 medium containing 5% fetal bovine serum and 2 mM L-glutamine. For a typical screening experiment, cells were inoculated into 96 well microtiter plates in 100 μL at plating densities ranging from 5,000 to 40,000 cells/well depending on the doubling time of individual cell lines. After cell inoculation, the microtiter plates were incubated at 37° C., 5% CO2, 95% air and 100% relative humidity for 24 hours prior to addition of the test compound. After 24 hours, two plates of each cell line were fixed in situ with TCA, to represent a measurement of the cell population for each cell line at the time of test compound addition (Tz). Experimental test compounds were solubilized in 100% (v/v) DMSO at 400-fold the desired final maximum test concentration and stored frozen prior to use. At the time of test compound addition, an aliquot of frozen concentrate was thawed and diluted to twice the desired final maximum test concentration with complete medium containing 50 μg/ml gentamicin. Additional four, 10-fold or ½ log serial dilutions were made to provide a total of five test compound concentrations plus control. Aliquots of 100 μl of these different test compound dilutions were added to the appropriate microtiter wells already containing 100 μl of medium, resulting in the required final test compound concentrations.
(§2) Following test compound addition, the plates were incubated for an additional 48 hours at 37° C., 5% CO2, 95% air, and 100% relative humidity. For adherent cells, the assay was terminated by the addition of cold TCA. Cells were fixed in situ by the gentle addition of 50 μl of cold 50% (w/v) TCA and incubated for 60 minutes at 4° C. The supernatant was discarded, and the plates were washed five times with tap water and air dried. Sulforhodamine B (SRB) solution (100 μl) at 0.4% (w/v) in 1% acetic acid was added to each well, and plates were incubated for 10 minutes at room temperature. After staining, unbound dye was removed by washing five times with 1% acetic acid and the plates were air dried. Bound stain was subsequently solubilized with 10 mM trizma base, and the absorbance was read on an automated plate reader at a wavelength of 515 nm. For suspension cells, the methodology was the same except that the assay was terminated by fixing settled cells at the bottom of the wells by gently adding 50 μl of 80% TCA. Using the seven absorbance measurements [time zero, (Tz), control growth, (C), and test growth in the presence of test compound at the five concentration levels (Ti)], the percentage growth was calculated at each of the test compound concentrations levels. Percentage growth inhibition was calculated as: [(Ti−Tz)/(C−Tz)]×100 for concentrations for which Ti≧Tz or [(Ti−Tz)/Tz]×100 for concentrations for which Ti<Tz. Growth inhibition of 50% (GI50) was calculated from [(Ti−Tz)/(C−Tz)]×100=50, which is the test compound concentration resulting in a 50% reduction in the net protein increase (as measured by SRB staining) in control cells during the test compound incubation.

The test system of a further data set is CAKI-1. The data set is described as above. Type of data set: cell-based. Conditions: CAKI-1, Renal Cancer, 48 hours, SRB. On the procedure:
as §1, §2

For another data set, the system named is HL-60(TB). Described as above. Type of data set: cell-based. Conditions: Leukemia, 48 hours, SRB. On the procedure: as §1, §2
A further data set concerns HT29. The description is as above. Type of data set: cell-based. Conditions: HT-29, HT29, Colon Cancer, 48 hours, SRB. On the procedure: as §1, §2
In another data set the test system is LOX IMVI. Described as above. Type of data set: cell-based. Conditions: Melanoma, 48 hours, SRB. On the procedure: as §1, §2
Another data set deals with MCF7. Described as above. Type of data set: cell-based. Conditions: MCF7, Breast Cancer, 48 hours, SRB. On the procedure:
as §1, §2

In the next data set the test system is OVCAR-3. Described as above. Type of data set: cell-based. Conditions: OVCAR-3, Ovarian Cancer, 48 hours, SRB. On the procedure: as §1, §2
A further data set has as its system PC-3. The data set is described as above. Type of data set: cell-based. Conditions: PC-3, Prostate Cancer, 48 hours, SRB. On the procedure:
as §1, §2

In another data set the test system is U251. The data set is described as above. Type of data set: cell-based. Conditions: U-251, U251, CNS Cancer, 48 hours, SRB. On the procedure:
as §1, §2

The nature of data set [1]: HCT-116 Cellular Cytotoxicity Assay. Conditions: human, HCT-116 cells, pH 7.2.
Method: (§3) The purpose of this assay is to determine if any of the synthesized compounds are cytotoxic against HCT-116 cells, as measured by resazurin metabolism. Resazurin is metabolized only by living cells from a non-fluorescent molecule into Resorufin, a highly red fluorescent dye. […] The cells were cultured in an incubator at 37° C. in 5% CO2 and 95% humidified air. […] The final concentration DMSO was 0.5% (v/v) in all samples. The plates were returned to the incubator for 72 hours. Following 72 hours of test compound exposure, 10 μL of 0.2 mg/mL Resazurin (Sigma) in phosphate buffered saline was added to each well and the plate was returned to the incubator for 3-6 hours. Since living cells metabolize Resazurin, the fluorescence of the reduction product of Resazurin was measured using a microplate fluorometer with λex=531 nm and λem=590 nm filters. Resazurin dye in medium without cells was used to determine the background, which was subtracted from the data for all experimental wells.
In data set [2] the test system is HCT-116 cells.
Method: as §3
For data set [3], the system named is HCT-116 cells. In words: HCT-116 Combination Cytotoxicity Assay. Type of data set: cell-based, human. Conditions: constant ratio, 72 hours.
The subject of data set [4] is human multiple myeloma tumor cells. Kind of data set: In vivo Efficacy of P5091. Conditions: SCID mice, 10 mg/kg intravenously twice a week for three weeks. On the procedure:
Severe combined immunodeficient mice inoculated subcutaneously with human multiple myeloma tumor cells were treated intravenously twice a week for three weeks with 10 mg/kg P5091. […] See D. Chauhan et al., Abstract No. 610 (Deubiquitylating Enzyme USP-7, a Novel Therapeutic Target in Multiple Myeloma), 51st ASH Annual Meeting and Exposition, New Orelans, La., December 2009.

T1 sequence (Q93009 whole entry): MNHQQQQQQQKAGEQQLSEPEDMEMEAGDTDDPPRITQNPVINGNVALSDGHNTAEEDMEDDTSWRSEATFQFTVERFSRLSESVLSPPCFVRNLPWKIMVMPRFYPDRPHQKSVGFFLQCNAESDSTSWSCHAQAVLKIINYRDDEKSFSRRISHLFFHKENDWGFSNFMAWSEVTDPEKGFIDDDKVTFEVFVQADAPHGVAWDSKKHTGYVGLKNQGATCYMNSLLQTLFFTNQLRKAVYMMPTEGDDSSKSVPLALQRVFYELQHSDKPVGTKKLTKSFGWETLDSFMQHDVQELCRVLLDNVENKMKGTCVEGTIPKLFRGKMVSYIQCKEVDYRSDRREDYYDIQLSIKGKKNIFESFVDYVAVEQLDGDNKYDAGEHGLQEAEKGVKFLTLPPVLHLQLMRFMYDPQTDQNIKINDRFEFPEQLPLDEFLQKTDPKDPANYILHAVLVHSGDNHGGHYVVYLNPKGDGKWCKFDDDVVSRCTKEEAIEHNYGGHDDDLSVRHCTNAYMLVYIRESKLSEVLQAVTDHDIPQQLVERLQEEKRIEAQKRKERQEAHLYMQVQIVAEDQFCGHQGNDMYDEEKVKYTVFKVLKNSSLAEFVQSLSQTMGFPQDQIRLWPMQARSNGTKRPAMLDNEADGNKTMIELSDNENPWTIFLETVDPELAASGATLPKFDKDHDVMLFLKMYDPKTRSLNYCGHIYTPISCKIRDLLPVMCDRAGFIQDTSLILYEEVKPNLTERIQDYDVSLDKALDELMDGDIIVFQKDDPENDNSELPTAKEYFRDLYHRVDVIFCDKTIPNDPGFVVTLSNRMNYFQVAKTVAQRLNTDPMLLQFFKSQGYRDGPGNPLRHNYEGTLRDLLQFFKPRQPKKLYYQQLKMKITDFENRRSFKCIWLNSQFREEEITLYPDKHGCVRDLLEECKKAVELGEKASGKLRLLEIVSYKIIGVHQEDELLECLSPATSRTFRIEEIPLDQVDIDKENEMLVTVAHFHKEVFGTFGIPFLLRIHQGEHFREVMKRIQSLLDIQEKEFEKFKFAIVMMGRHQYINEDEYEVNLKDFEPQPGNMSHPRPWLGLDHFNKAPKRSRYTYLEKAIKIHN

In general, EC50 refers to the concentration needed to bring the measured effect to its halfway point. As usually defined, the GI50 is the concentration that inhibits growth by half. Take `CC(=O)c1cc([N+](=O)[O-])c(Sc2c(Cl)cncc2Cl)s1` [Example 17, 1-[5-[(3,5-dichloro-4-pyridyl)sulfanyl]-4-nitro-2-thienyl]ethanone]: the concentration giving a half-maximal response (EC50) at USP7 fell in the range of 1000 to 10000 nM. The GI50 in the data set on A549/ATCC stood at 3090 nM; in the data set with CAKI-1, 1860 nM; in the data set with HL-60(TB), 1910 nM; in the data set with HT29, 1860 nM; in the data set with LOX IMVI, 1510 nM; with MCF7 it was 1910 nM. Also, the 50% growth inhibitory concentration (GI50) in the data set with OVCAR-3 came out at 1410 nM; with PC-3, 2750 nM; in the data set with U251, 1950 nM. This molecule yielded a 50% effective concentration (EC50) at 72 h in data set [1] of 8660 nM.
As to `CS(=O)(=O)c1cc([N+](=O)[O-])c(Sc2ccc(Cl)cc2Cl)s1` [Example 23, 2-(2,4-dichlorophenyl)sulfanyl-5-methylsulfonyl-3-nitro-thiophene], the EC50 on USP7 was in the range of 1000 to 10000 nM. Further, the 50% growth inhibitory concentration (GI50) worked out at 12600 nM with A549/ATCC; 2240 nM with CAKI-1; 2190 nM with HL-60(TB); 1780 nM with HT29; 1740 nM in the data set with LOX IMVI; 1700 nM in the data set on MCF7. The GI50 with OVCAR-3 is 1620 nM; in the data set with PC-3, 3980 nM; with U251, 6310 nM.
“N-(5-(tert-butyl)isoxazol-3-yl)-5-((3,5-dichloropyridin-4-yl)thio)-4-nitrothiophene-2-carboxamide [Example 201]” returned an EC50 in the data set with HCT-116 cells [2] of 12900 nM.
Consider `CS(=O)(=O)c1cc([N+](=O)[O-])c(Sc2c(Cl)cncc2Cl)s1` [Example 22, 3,5-dichloro-4-[(5-methylsulfonyl-3-nitro-2-thienyl)sulfanyl]pyridine], for which the EC50 at USP7 fell in the range of 1000 to 10000 nM. Moreover, the GI50 in the data set on A549/ATCC is 13800 nM; in the data set with CAKI-1, 1820 nM; in the data set with HL-60(TB) it was 1410 nM; in the data set with HT29 it was 2040 nM; in the data set with LOX IMVI, 10000 nM; with MCF7, 2040 nM. Besides, the figures for the GI50 in the data set with OVCAR-3, in the data set with PC-3 and in the data set on U251 were 1820 nM, 3720 nM and 12900 nM, respectively.
Take `CC(=O)c1cc([N+](=O)[O-])c(Sc2cccc(Cl)c2Cl)s1` [Example P5091, 1-[5-(2,3-dichlorophenyl)sulfanyl-4-nitro-2-thienyl]ethanone]: the GI50 in the data set on A549/ATCC stood at 16300 nM; with CAKI-1, 2170 nM; in the data set with HL-60(TB), 1820 nM; in the data set on HT29, 2070 nM; in the data set on LOX IMVI, 1840 nM; in the data set on MCF7, 1940 nM. The 50% growth inhibitory concentration (GI50) turned out to be 1650 nM with OVCAR-3, 1780 nM in the data set on PC-3 and 2330 nM in the data set with U251. Moreover, the “CI (mean ± SD) ED75” value in the data set on HCT-116 cells [3] (combination with Chlormethine) is 0.67 ± 0.07; with HCT-116 cells [3] (combination with Doxorubicin), 0.73 ± 0.08; with HCT-116 cells [3] (combination with Etoposide) it was 0.54 ± 0.04. Moreover, the “CI (mean ± SD) ED90” value with HCT-116 cells [3] (combination with Chlormethine) is listed as 0.77 ± 0.05; in the data set with HCT-116 cells [3] (combination with Doxorubicin), 0.81 ± 0.02; with HCT-116 cells [3] (combination with Etoposide), 0.63 ± 0.01. In addition, the human plasmacytoma growth entry in data set [4] is “significantly inhibited human plasmacytoma growth”. For the same molecule, in [4], the survival entry is given as “significantly enhanced survival”. The molecule further returned a half-maximal effective concentration (EC50) at 72 h in data set [1] of 9210 nM.
Consider `CC(=O)c1cc([N+](=O)[O-])c(Sc2ccc(F)cc2F)s1` [Example 3, 1-[5-(2,4-Difluorophenylsulfanyl)-4-nitro-2-thienyl]ethanone], for which the GI50 in the data set on A549/ATCC worked out at 15500 nM; in the data set on CAKI-1, 1820 nM; with HL-60(TB) it was 2750 nM; in the data set with HT29, 3800 nM; in the data set on LOX IMVI it was 1510 nM; with MCF7 it was 2570 nM. Further, the 50% growth inhibitory concentration (GI50) in the data set on OVCAR-3 turned out to be 2040 nM; in the data set with PC-3, 12000 nM; in the data set on U251, 4790 nM.
In the case of `CN1CCC(NC(=O)c2cc([N+](=O)[O-])c(Sc3c(Cl)cncc3Cl)s2)CC1` [Example 168, 5-((3,5-dichloropyridin-4-yl)thio)-N-(1-methylpiperidin-4-yl)-4-nitrothiophene-2-carboxamide], the EC50 on USP7 was at most 1000 nM. For the same molecule, the “CI (mean ± SD) ED75” value worked out at 0.70 ± 0.10 with HCT-116 cells [3] (combination with Chlormethine), 0.73 ± 0.09 in the data set with HCT-116 cells [3] (combination with Doxorubicin) and 0.54 ± 0.10 in the data set with HCT-116 cells [3] (combination with Etoposide). Moreover, the “CI (mean ± SD) ED90” value amounted to 0.78 ± 0.13 in the data set with HCT-116 cells [3] (combination with Chlormethine), 0.81 ± 0.11 in the data set with HCT-116 cells [3] (combination with Doxorubicin) and 0.59 ± 0.14 in the data set with HCT-116 cells [3] (combination with Etoposide). The EC50 at 72 h in data set [1] is 6520 nM.
As to `O=C(Nc1ccc2ncccc2c1)c1cc([N+](=O)[O-])c(Sc2c(Cl)cncc2Cl)s1` [Example 180, 5-((3,5-dichloropyridin-4-yl)thio)-4-nitro-N-(quinolin-6-yl)thiophene-2-carboxamide], the half-maximal effective concentration (EC50) on USP7 is at most 1000 nM. Further, the EC50 at 72 h in [1] worked out at 7620 nM.
As to `CC(=O)c1cc(C#N)c(Sc2ccc(Cl)cc2Cl)s1` [Example 21, 1-[4-cyano-5-(2,4-dichlorophenyl)sulfanyl-2-thienyl]ethanone], on USP7, the EC50 is above 10000 nM. For the same molecule, in data set [1], the response was half-maximal at 32500 nM (EC50 at 72 h).
